Assay results published in patent US11389505B2, “Method of managing joint pain” (ORTHOTROPHIX, INC., priority 2017, dated 2022).
Ends that are not written are not given here.

Test system: subjects with osteoarthritis of the knees
Test: Clinical study of TPX-100, safety and tolerability of intra-articular administration
Assay type: in vivo, human

**Q.** For TDLQERGDNDISPFSGDGQPFKD-NH2 [TPX-100], which Dose-limiting toxicities (Part A, 20, 50, 100 and 200 mg per intra-articular injection, 4 weekly injections) is on record?
**A.** no dose-limiting toxicities

**Q.** And the “Severe adverse events related to the drug treatment” value (throughout the study period)?
**A.** no severe adverse events likely or possibly related to the drug treatment

**Q.** And the “Severity of treatment-related adverse events” value (throughout the study period)?
**A.** mild or moderate, transient

**Q.** What about the “Safety and tolerability of treatments” value (throughout the study period (12 months)) of the same substance?
**A.** safe and well tolerated
